Test results taken from patent US20080153792A1, “Drug Identification and Treatment Method” (priority 2006, published 2008).
pEC50, pIC50: −log10 of the molar value. Read-outs that look alike come from different tables or passages of the source.

Key:
[1] = metabolic stability in liver microsomes, species not stated; type: in vitro ADME; settings: compared with androst-5-ene-3β,17β-diol reference compound
Protocol: The protocol was performed as follows. […] (2) Set up samples as follows. […] (4) The internal standard/acetonitrile solution.

[2] = system: CD1 male mice, carrageenan-λ induced pleurisy; test: carrageenan-λ induced lung (pleural cavity) inflammation in mice; type: in vivo, mouse; settings: for number of neutrophils relative to untreated carrageenan-λ control (100%): 4 h after carrageenan
[3] = system: γ-interferon production by human whole blood; test: γ-interferon production in human whole blood exposed to LPS; type: cell-based; settings: LPS 24 hours; 16α-bromoepiandrosterone at 100 ng/mL
Protocol: Anti-inflammation activity in human cells in vitro. […] The amount of γ-interferon was measured in the growth medium when the cells had been incubated in the presence of LPS for 24 hours.

[4] = system: mice given a lethal amount of LPS; test: lethal shock protocol, lethal amount of bacterial LPS; type: in vivo, mouse; settings: second assay; oral gavage 24 h before and 1 h after LPS
Protocol: Treatment of lethal inflammation/shock. Two compounds, 16α-bromoepiandrosterone (3β-hydroxy-16α-bromoandrostane-17-one) and 3β,16α-dihydroxy-17-oxoandrostane, were used in a lethal shock protocol. In one protocol, 3 mg of 16α-bromoepiandrosterone was administered to one group of animals by oral gavage, while another group received 3 mg of 16α-bromoepiandrosterone by subcutaneous injection. A group of control animals received a placebo control. In this protocol, the 16α-bromoepiandrosterone was administered to mice at 24 hours before and at 1 hour after administration of a lethal amount of bacterial lipopolysaccharide (LPS). By the end of the observation period, 72 hours after LPS administration, none of the vehicle treated placebo control animals had survived, while 65% of animals that received 16α-bromoepiandrosterone by oral administration survived. 50% of the animals that received 16α-bromoepiandrosterone by subcutaneous injection survived. Animals that survived for 72 hours all recovered from the LPS exposure.
In a second assay, 16α-bromoepiandrosterone or 3β,16α-dihydroxy-17-oxoandrostane was administered to mice by oral gavage at 24 hours before and 1 hour after administration of a lethal amount of LPS. A vehicle treated group of animals was used as the placebo control.

[5] = system: human peripheral blood mononuclear cells (PBMC); test: human mixed lymphocyte reaction (MLR); type: cell-based; settings: either 300 nM or 30 nM; 6 days; p>0.05
Protocol: Human mixed lymphocyte reaction (MLR). The capacity of 3β,16α-dihydroxy-17-oxoandrostane, 3β,17β-dihydroxy-16-oxoandrostane, 17α-ethynylandrost-5-ene-3β,7β,17β-triol, and 17β-aminoandrost-5-ene-3β-ol to affect antigen specific stimulation in which human T lymphocytes respond to a specific foreign antigen (major histocompatibility complex).
Blood samples were obtained from 3 (2 males, […]) fasting, healthy human volunteers of 23-31 years old. […] The subjects were bled between […] to limit possible fluctuations in the circulating levels of hormones or cytokines that could have influenced the in vitro responses of their lymphocytes. Peripheral blood mononuclear cells (PBMC) were isolated by centrifugation on Ficoll-Hypaque (density 1.077, Biochrom AG, Berlin, Germany) gradients and resuspended in culture medium (RPMI 1640 supplemented with 2 mM L-glutamine, penicillin (100 U/mL) and streptomycin ([…]) (Invitrogen s.rl., Milan, Italy). Autologous (responder) inactivated plasma was used at 10%. Five hundred thousand responder PBMC (PBMCr) and 500,000 allogeneic irradiated (30 Gy) stimulator PBMC (PBMCs) were mixed at a ratio of 1:1 in 200 μL medium and cultured for 6 days in flat bottom 96 well plates (Nunc, Roskilde, Denmark) at a concentration of 300 nM or 30 nM for each of the 4 compounds. The compounds were dissolved in ethanol and then diluted to the desired concentration with culture medium leading to a final solution containing 0.01% of ethanol. This vehicle was used as control. Controls also included PBMCr and PBMCs cultured separately. During the last 8 hours of the culture period the PBMC were pulsed with 1 μCi/well [^3H] thymidine (Amersham, Milan, Italy). The cells were then harvested and radioactivity incorporation measured with a beta cell counter. The mean cpm of quadruplicate wells was calculated. Proliferation of T cells was expressed as a stimulation index: SI=cpm (PMBCs xPBMCr)/cpm (PBMCr)+cpm (PBMCs). Statistical analysis was performed using the Student's t test. The cpm obtained from quadruplicate of each test compound were compared to proliferative responses obtained in control PBMCr and PBMCs cultured in the presence of the vehicle. Differences were considered significant at p<0.05.

[6] = system: mice, LPS induced lung injury; test: lung injury by sublethal LPS to trachea and lungs, BAL cell count; type: in vivo, mouse; settings: oral gavage 24 h before and 1 h after 100 μg LPS; 48 hours
Protocol: In another assay, the capacity of 16α-bromoepiandrosterone and 3β,16α-dihydroxy-17-oxoandrostane to protect against lung injury induced by exposure to a sublethal amount of LPS in mice was shown. In this assay, the compounds, sterile saline (negative control) or vehicle (vehicle control) were administered to groups of 5 mice by oral gavage at 24 hours before and 1 hour after administration of 100 μg of LPS to the trachea and lungs of animals under light anesthesia. At 48 hours the animals were sacrificed and samples were obtained from the lungs of the animals by bronchiolar alveolar lavage (BAL). The numbers of cells in the BAL fluid were counted, with high numbers of cells showing lung inflammation and damage. In this assay, cells that mediate inflammation and lung damage infiltrate into the lungs in response to the presence of the LPS. In the negative control and vehicle control groups, the BAL fluid contained about 6×10^7 cells/mL. […] Other compounds, e.g., 17α-ethynylandrost-5-ene-3β,7β,17β-triol or 17β-aminoandrost-5-ene-3β-ol, can be characterized in a similar manner.

NF-κB = test: NF-κB-bla THP-1 β-lactamase reporter assay; type: cell-based, human
[7] = system: bone marrow-derived mast cells (BMMC); test: mast cell stimulus-coupled degranulation (glucuronidase release); type: cell-based, mouse
Protocol: In another protocol, a population of mast cells was cultivated from murine bone marrow as follows. Briefly, bone marrows from Balb/C mice were flushed from the femur using PBS and a 27 g needle. The cells were cultured in a mixture of ⅔ RPMI-1640 with 19% FBS and cells that secreted IL-3. The bone marrow cells were allowed to differentiate for 18-25 days in the IL-3-containing mixture before being used for experiments. Bone marrow cells cultured in this manner have a phenotype similar to mucosal mast cells and are referred to as bone marrow-derived mast cells (BMMC).
The homogeneity of the in vitro propagated mast cells was checked by conventional flow cytometry techniques and staining for cell-type specific markers. Between days 14 and 21 of propagation, mature mast cells were harvested and prepared for the test cultures. The objective was to assess of the effect of compounds such as dehydroepiandrosterone on mast cell stimulus-coupled degranulation. Prepared mast cells were dispensed into test culture wells at a density of 1×10^7 cells/mL. In control cultures, mast cells were induced to degranulate after cross linking of IgE receptors with IgE antigen-antibody complexes. […] There was no detectable degranulation of mast cells as measured by release of […] from cytosolic storage granules of the cells in the absence of the stimulus. […]

[8] = system: BALB/c mice, OVA sensitized and challenged; test: ovalbumin (OVA) sensitized mouse model of asthma; type: in vivo; settings: for IL-13: s.c. once daily, dexamethasone 5 mg/kg, compound 1 mg/mouse
Protocol: BALB/c mice were sensitized by intraperitoneal injection with OVA (in alum adjuvant) on days 1, and 12. Airways were challenged with OVA on days 28 and 30 by delivery of OVA to the lung, or with saline. […] The remaining animals were divided into 6 groups (6 mice per group). Groups of the mice were treated once daily by subcutaneous injection as follows. Group 1 vehicle control (0.1% carboxymethyl cellulose, 0.9% saline, 2% tween 80, 0.05% phenol). Group 2 dexamethazone (5 mg/kg). Group 3 3α,16α,17α-trihydroxyandrostane (1 mg/mouse). Three animals in groups 1-3 were sacrificed on day 35 at 1 hr after final treatment and the remaining 3 animals in groups 1-3 were sacrificed on day 38.

[9] = system: BALB/C mice, TNP-OVA sensitized; test: reporter antigen popliteal lymph node (PLN) assay; type: in vivo, mouse; settings: 5 μg/day by subcutaneous injection; day 5
Source text: Analysis of immune suppression. Glucocorticoid steroids such as dexamethasone or hydrocortisone are typically immune suppressive and have significant toxicities associated with their use. Immune suppression was examined in a reporter antigen popliteal lymph node assay in mice essentially as previously described (C. Goebel et al., Inflamm. Res., 45(Suppl. 2):S85-S90, 1996; R. Pieters et al., Environmental Health Perspectives 107(Suppl. 5):673-677,1999). […] In this protocol, the vehicle was 0.1% carboxymethylcellulose, 0.9% saline, 2% tween 80 and 0.05% phenol, which contained 17α-ethynylandrost-5-ene-3β,7β,17β-triol in suspension in drug treated animals. Assessment of activity included (1) measuring suppression of numbers of total lymphocytes, antigen specific IgM, IgG1 and IgG2a antibody secreting cells (ASC) (ELISPOT assay) in popliteal lymph node cells; (2) analysis of cell surface marker (CD4, CD8, CD19, F480, CD80, CD86) expression by flow cytometry of living cells in suspension; and (3) IL-4, TNFα and IFNγ production by lymphocytes in vitro (ELISA).
Groups (n=5 per group) of specific pathogen free BALB/C mice were used. The Positive control group was treated with vehicle (oral gavage) and 5 μg/day dexamethasone by subcutaneous injection to induce immune suppression. Vehicle control animals (negative control) were treated with vehicle alone (oral gavage). One group of animals was treated with 17α-ethynylandrost-5-ene-3β,7β,17β-triol at 0.1 mg/day by oral gavage. Another group was treated with 1 mg/day of 17α-ethynylandrost-5-ene-3β,7β,17β-triol was administered to the animals oral gavage. The results were analyzed by two-tailed Student's t-test with equal variance. The animals were injected in the right hind footpad with 50 μL of freshly prepared sensitizing dose of TNP-OVA. Dexamethasone (decadron phosphate injection; dexamethasone sodium phosphate) was administered by subcutaneous injection into the nape of the neck daily, immediately following sensitization with TNP-OVA. 17α-Ethynylandrost-5-ene-3β,7β,17β-triol was given immediately afterwards by gavage. Five days after injection of TNP-OVA, blood was drawn by orbital puncture, and the mice were euthanized by cervical dislocation and popliteal lymph nodes were removed and separated from adherent fatty tissue. Single cell suspensions were prepared, resuspended in 1 mL PBS-BSA (1%) and counted. Cell numbers, IL-4, IL-5 and IFNγ were measured.

[10] = system: mice treated daily with dexamethasone; test: osteoprotegerin levels in dexamethasone treated mice; type: in vivo, mouse; settings: vehicle and dexamethasone at 10 μg/day for 23 days (positive control group)
Protocol: Osteoprotegerin levels in mice that were treated with vehicle and dexamethasone at 10 μg/day (positive control group) had 3.3 pMol/L osteoprotegerin, while animals treated with vehicle, dexamethasone and 17α-ethynyl-5-androstene-3β,7β,17β-triol at 4 mg/kg/day had 6.4 pMol/L osteoprotegerin (p<0.05).

MG-63 cells = test: reversal of glucocorticoid effects in MG-63 osteosarcoma cells; type: cell-based, human; settings: dexamethasone 30 nM

## C[C@]12CC[C@H](O)CC1CC[C@@H]1[C@@H]2CC[C@]2(C)C(=O)[C@H](O)C[C@@H]12 (stereo partly drawn) [3β,16α-dihydroxy-17-oxoandrostane]
[1]
  metabolism by microsomes: metabolized by microsomes at a rate similar to the androst-5-ene-3β,17β-diol reference compound
[2]; 0.001 mg dose s.c.
  neutrophils in the pleura / pleural exudate: inactive
[2]; 0.001 mg s.c. 24 h and 1 h before carrageenan-λ
  number of neutrophils relative to untreated carrageenan-λ control (100%): 97%
[2]; 0.01 mg s.c. 24 h and 1 h before carrageenan-λ
  number of neutrophils relative to untreated carrageenan-λ control (100%): 73%
[2]; 0.1 mg and 0.01 mg doses s.c.
  number of neutrophils in the pleura: significant reduction
[2]; 0.1 mg dose s.c.
  volume of pleural exudate: significantly reduced
[2]; 0.1 mg s.c. 24 h and 1 h before carrageenan-λ
  number of neutrophils relative to untreated carrageenan-λ control (100%): 73%
[2]; s.c.
  potency compared with polyclonal anti-TNF-α antibody control: less potent
[3]
  production of γ-interferon: Reduced production
[4]
  survival at 72 hours: 50%
[5]
  immune suppression in the MLR: not appreciably immune suppressive
[6]
  cell counts in the BAL fluid: about 4.4×10^7 cells/mL
NF-κB; Homo sapiens, THP-1, read-out: IC50 for inhibition of NF-κB activation, after LPS stimulation, 50% of the maximum inhibition the compound can induce, averages of 2-4 assays
  pIC50: < 5.00

## C[C@]12CC[C@H](O)CC1=CC[C@@H]1[C@@H]2CC[C@]2(C)C(=O)CC[C@@H]12 [dehydroepiandrosterone]
[7]; Mus musculus, BMMC, 100 μM, 5 to 10 minutes before activation with anti-IgE antigen-antibody complexes
  inhibition at 100 µM: ~70%
[7]; no stimulus
  degranulation by compound alone: no measurable degranulation
NF-κB; Homo sapiens, THP-1, read-out: IC50, this protocol
  pIC50: < 5.00

## C[C@@H]1C[C@H]2[C@@H]3CCC4=CC(=O)C=C[C@]4(C)[C@@]3(F)[C@@H](O)C[C@]2(C)[C@@]1(O)C(=O)CO [dexamethasone, reference compound]
[8]; day 35
  IL-13: 340 pg/mL
[8]; day 38
  IL-5 in lung tissue: 145 pg/mL
  IL-13: 390 pg/mL
[9]
  average number of lymphocytes in PLNs: 2.9×10^6 per lymph node
[10]
  osteoprotegerin: 3.3 pmol/L
NF-κB; Homo sapiens, THP-1, TNFα stimulation, average of 5 assays, read-out: EC50 for decreasing the effect of TNFα
  pEC50: 9.33
NF-κB; this protocol
  maximum NF-κB inhibition: 100%
MG-63 cells; compounds at 10 nM in the presence of 30 nM dexamethasone, vehicle control 0.25
  11β-HSD mRNA: 1.0 units
MG-63 cells; compounds at 10 nM in the presence of 30 nM dexamethasone, vehicle control 0.90
  IL-8: 0.12 units
MG-63 cells; compounds at 10 nM in the presence of 30 nM dexamethasone, vehicle control 6.2
  IL-6: 1.3 pg/mL
MG-63 cells; vehicle control 445
  osteoprotegerin: 280 pmol/L
